Data reported in patent US6972287B1, “Method of inhibiting amyloid protein aggregation and imaging amyloid deposits” (Pfizer Inc., priority 1999, dated 2005).
Values joined by “and” are separate entries in the source; they are usually repeats but may differ in a detail not shown here. Equal entries are not always repeated.

Assays:
[1] = target: T1, Aβ(1-40) (Homo sapiens, UniProt P05067); test: BASSR (Beta-Amyloid Self-Seeding Radioassay), inhibitors of self-seeded amyloid fibril growth; format: biochemical; conditions: 30 μM soluble Aβ(1-40) + 125I-labeled Aβ(1-40), 37° C., 3 to 5 hours; replicate values; letter = synthetic lot; ppt = precipitate; V-shaped = inhibition followed by precipitation
T1 construct: […]; purchased Bachem, Torrance, Calif
Procedure, shortened: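 Self-seeded growth of ^125I-labeled Aβ(1-40) fibrils in 50 mM sodium phosphate pH 7.5, 100 mM NaCl, 0.02% NaN3, 1 M urea; compound (3-fold dilutions from 100 μM final) preincubated 10 min on ice, then 3–5 h at 37° C. Fibrils collected by vacuum filtration on 0.2 μm filters and counted for radioactivity.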

[2] = target: T2, Aβ (1-42) (Homo sapiens, UniProt P05067); test: BATYM assay (Aβ (1-42) aggregation, Thioflavin T fluorescence); format: biochemical; conditions: Aβ 1-42 final concentration 100 μM, 37° C., 1 day, letter = synthetic lot
T2 construct: Required Aβ (1-42) (California Peptide) was dried from its hexafluoroisopropanol (HFIP) stock solution; purchased California Peptide
Procedure, shortened: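 Aβ (1-42) (100 μM final, PBS pH 7.4 from DMSO) incubated with compound at 37° C. for 1 day. Aggregation read by ThT (30 μM, glycine-NaOH pH 8.5) fluorescence, ex 440/em 485 nm; inhibition as fluorescence reduction corrected for compound-alone signal, IC50 by curve fitting from two experiments in triplicate.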

[3] = target: T3, Aβ (1-40) peptide (Homo sapiens, UniProt P05067); test: BAPA (Beta-Amyloid Peptide Aggregation, pH 6.0, filtration); format: biochemical; conditions: Aβ (1-40) 33 μM, pH 6.0, 2 to 4 hours at room temperature; replicate values; letter = synthetic lot
T3 construct: 10 μL 0.5 mg/mL Aβ (1-40) peptide in 20% HFIP
Procedure, shortened: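 Aggregation of human Aβ (1-40) peptide was measured in an endpoint filtration assay. The peptide was first reduced to monomer with hexafluoroisopropanol (HFIP), then used at 33 μM so it would aggregate at pH 6.0, and incubated for 2 to 4 hours at room temperature. Filter plates were washed with 100 μL phosphate buffer, impregnated with Meltilex, and counted on a Microbeta counter with background correction.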

[4] = target: T1, Aβ(1-40); test: BASST (Beta-Amyloid Self-Seeding, Thioflavin T), inhibitors of self-seeded amyloid fibril growth; format: biochemical; conditions: 30 μM soluble Aβ(1-40), 37° C., 3 to 5 hours, thioflavin T fluorescence; replicate values; letter = synthetic lot; read-out: BASST (IC50 = μM)
Procedure, shortened: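 Self-seeded Aβ(1-40) fibril growth was run in 50 mM sodium phosphate pH 7.5, 100 mM NaCl, 0.02% NaN3, 1 M urea. Compounds were tested in 3-fold serial dilutions (top 100 μM final): 10 min on ice, then 3–5 h at 37 °C. Fibrils were read by 5 μM thioflavin T fluorescence (ex 440/em 485 nm).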

T1 sequence (P05067 672-711 limits assumed): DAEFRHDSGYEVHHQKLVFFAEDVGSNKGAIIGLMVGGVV
T3 sequence (P05067 672-711 limits assumed): as above
T2 sequence (P05067 672-713 limits assumed): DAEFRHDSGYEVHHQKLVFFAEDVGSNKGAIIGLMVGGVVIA

Compound	IC50 [1]	IC50 [2]	IC50 [3]	melting point [°C]	IC50 [4]
CS(=O)(=O)NC(=O)c1ccccc1Nc1ccc(CCCc2ccc(Cl)c(Cl)c2)cc1 [Example 60, N-(2-{4-[3-(3,4-Dichloro-phenyl)-propyl]-phenylamino}-benzoyl)-methanesulfonamide]	> 100 µM	40.7 µM	8 µM	53 to 61	3 µM
O=C(O)c1cc([N+](=O)[O-])ccc1Nc1ccc(CCc2cccc(C(F)(F)F)c2Cl)cc1 [Example 63]	15 µM (2×) and 18 µM	9.43 µM	45 µM	207 to 209	1 µM
Nc1ccc(Nc2ccc(CCc3ccc(Cl)c(Cl)c3)cc2)c(C(=O)O)c1 [Example 64, 5-Amino-2-{4-[2-(3,4-Dichloro-phenyl)-ethyl]-phenylamino}-benzoic acid]	> 100 µM	35 µM	> 100 µM	137 to 142	5 µM
O=C(O)c1cc([N+](=O)[O-])ccc1Nc1ccc(CCc2ccccc2)cc1 [Example 65, 5-Nitro-2-(4-phenethyl-phenylamino)-benzoic acid]	60 µM and 80 µM	15.9 µM	> 100 µM	198 to 202	1.5 µM
O=C(O)c1ccccc1Nc1ccc(CCc2ccc(F)c(C(F)(F)F)c2)cc1 [Example 66, 2-{4-[2-(4-Fluoro-3-trifluoromethyl-phenyl)-ethyl]-phenylamino}-benzoic acid]	> 100 µM	50.1 µM	> 100 µM	148 to 150	2.1 µM
O=C(O)c1cc([N+](=O)[O-])ccc1Nc1ccc(CCc2ccc(F)c(F)c2)cc1 [Example 67, 2-{4-[2-(3,4-Difluoro-phenyl)-ethyl]-phenylamino}-5-nitro-benzoic acid]	41 µM	13.3 µM	> 60 µM	203 to 208	4 µM
O=C(O)c1cc([N+](=O)[O-])ccc1Nc1ccc(CCc2ccc(F)c(C(F)(F)F)c2)cc1 [Example 69, 2-{4-[2-(4-Fluoro-3-trifluoromethyl-phenyl)-ethyl]-phenylamino}-5-nitro-benzoic acid]	2 µM and 3.5 µM	11.7 µM	58 µM	190 to 193	0.8 µM
O=C(O)c1ccccc1Nc1ccc(CCc2ccccc2)cc1 [Example 70, 2-(4-Phenethyl-phenylamino)-benzoic acid]	20 µM	> 100 µM	65 µM	173 to 182	10 µM
O=C(O)c1cccnc1Nc1ccc(CCc2ccc(Cl)c(Cl)c2)cc1 [Example 72, 2-{4-[2-(3,4-Dichloro-phenyl)-ethyl]-phenylamino}-nicotinic acid]	40 µM and 15 µM and 12 µM	74.8 µM	> 60 µM	168 to 171	2 µM and 2.5 µM
O=C(O)c1cc([N+](=O)[O-])ccc1Nc1ccc(CCc2cccc(Cl)c2)cc1 [Example 73, 2-{4-[2-(3-Chloro-phenyl)-ethyl]-phenylamino}-5-nitro-benzoic acid]	25 µM and 35 µM and 40 µM	9.43 µM	> 60 µM	192.5 to 194.5	0.3 µM
O=C(O)c1cc([N+](=O)[O-])ccc1Nc1ccc(CCc2ccc(Cl)cc2)cc1 [Example 74, 2-{4-[2-(4-Chloro-phenyl)-ethyl]-phenylamino}-5-nitro-benzoic acid]	6 µM and 18 µM (2×) and 19 µM	8.36 µM	> 60 µM	210 to 212	0.3 µM and 0.5 µM
Cc1ccc(Nc2ccc(CCc3ccc(Cl)c(Cl)c3)cc2)c(C(=O)O)c1 [Example 75, 2-{4-[2-(3,4-Dichloro-phenyl)-ethyl]-phenylamino}-5-methyl-benzoic acid]	> 100 µM	46.2 µM	> 60 µM	153 to 160	2.2 µM
O=C(O)c1cc([N+](=O)[O-])ccc1Nc1ccc(CCc2ccccc2Cl)cc1 [Example 76, 2-{4-[2-(2-Chloro-phenyl)-ethyl]-phenylamino}-5-nitrobenzoic acid]	3 µM	8.59 µM	> 60 µM	236 to 238	0.5 µM
O=C(O)c1c(Nc2ccc(CCc3ccc(Cl)c(Cl)c3)cc2)cccc1C(F)(F)F [Example 78, 2-{4-[2-(3,4-Dichloro-phenyl)-ethyl]-phenylamino}-6-trifluoromethyl-benzoic acid]	70 µM	> 100 µM	8 µM	130 to 132	0.1 µM
CN(C)c1ccc(Nc2ccc(CCc3ccc(Cl)c(Cl)c3)cc2)c(C(=O)O)c1 [Example 80, 2-{4-[2-(3,4-Dichloro-phenyl)-ethyl]-phenylamino}-5-dimethylamino-benzoic acid]	> 100 µM	24.8 µM	> 60 µM	75 to 80	4 µM
O=C(O)c1ccccc1Nc1ccc(CCc2cc(Cl)cc(Cl)c2)cc1 [Example 81, 2-{4-[2-(3,5-Dichloro-phenyl)-ethyl]-phenylamino}-benzoic acid]	> 100 µM	48.4 µM	73 µM	191 to 194	15 µM
O=C(O)c1ccccc1Nc1ccc(CCc2ccc(F)c(F)c2)cc1 [Example 122, 2-{4-[2-(3,4-Difluoro-phenyl)-ethyl]-phenylamino}-benzoic acid]	> 100 µM	> 100 µM	> 60 µM	184 to 185	2 µM
COc1ccc(CCc2ccc(Nc3ccccc3C(=O)O)cc2)c(OC)c1 [Example 125, 2-{4-[2-(2,4-Dimethoxy-phenyl)-ethyl]-phenylamino}-benzoic acid]	82 µM	> 100 µM	80 µM	180 to 181	10 µM
O=C(O)c1ccccc1Nc1ccc(CCc2ccccc2Cl)cc1 [Example 126, 2-{4-[2-(2-Chloro-phenyl)-ethyl]-phenylamino}-benzoic acid]	> 100 µM (2×) and 30 µM	84 µM and 73.9 µM	63 µM and > 60 µM	140 to 143	4 µM (2×) and 5 µM and 10 µM
O=C(O)c1ccccc1Nc1ccc(CCc2ccccc2O)cc1 [Example 127, 2-{4-[2-(2-Hydroxy-phenyl)-ethyl]-phenylamino}-benzoic acid]	> 100 µM	> 100 µM	67 µM	218 to 219	10 µM
O=C(O)c1cccc(Nc2ccc(CCc3ccc(Cl)c(Cl)c3)cc2)c1 [Example 131, 3-{4-[2-(3,4-Dichloro-phenyl)-ethyl]-phenylamino}-benzoic acid]	> 100 µM	93.5 µM	> 60 µM	137 to 138	10 µM
COc1cc(CCc2ccc(Nc3ccccc3C(=O)O)cc2)cc(OC)c1OC [Example 133, 2-{4-[2-(3,4,5-Trimethoxy-phenyl)-ethyl]-phenylamino}-benzoic acid]	> 100 µM	> 100 µM	> 60 µM	146 to 147	> 100 µM
